Data: patent US12195490B2, “STRAD-binding agents and uses thereof” (The Regents of the University of California, priority 2020, dated 2025)

Assays:
[1] = tested on: most sensitive cancer cell line; experiment: cell activity: CTG anti-proliferation in most sensitive cancer cell line; format: cell-based; conditions: APA analogs
LKB1 [2] = molecular target: T1, LKB1 (Homo sapiens, UniProt Q15831+Q7RTN6); experiment: in vitro LKB1 functional activity; format: biochemical; conditions: APA analogs
T1 sequence (Q15831 1-433): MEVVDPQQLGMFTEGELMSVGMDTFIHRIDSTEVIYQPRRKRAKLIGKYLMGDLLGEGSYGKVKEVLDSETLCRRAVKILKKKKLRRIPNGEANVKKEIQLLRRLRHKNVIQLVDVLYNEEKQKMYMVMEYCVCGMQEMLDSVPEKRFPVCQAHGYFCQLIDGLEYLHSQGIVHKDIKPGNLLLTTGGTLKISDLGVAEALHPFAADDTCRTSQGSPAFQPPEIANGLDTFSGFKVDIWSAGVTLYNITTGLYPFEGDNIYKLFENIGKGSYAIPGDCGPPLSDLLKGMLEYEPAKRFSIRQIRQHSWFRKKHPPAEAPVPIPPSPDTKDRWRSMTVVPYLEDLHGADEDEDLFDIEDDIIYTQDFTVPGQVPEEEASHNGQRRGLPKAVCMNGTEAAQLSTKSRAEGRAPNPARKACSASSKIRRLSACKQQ
T1 sequence (Q7RTN6 1-431): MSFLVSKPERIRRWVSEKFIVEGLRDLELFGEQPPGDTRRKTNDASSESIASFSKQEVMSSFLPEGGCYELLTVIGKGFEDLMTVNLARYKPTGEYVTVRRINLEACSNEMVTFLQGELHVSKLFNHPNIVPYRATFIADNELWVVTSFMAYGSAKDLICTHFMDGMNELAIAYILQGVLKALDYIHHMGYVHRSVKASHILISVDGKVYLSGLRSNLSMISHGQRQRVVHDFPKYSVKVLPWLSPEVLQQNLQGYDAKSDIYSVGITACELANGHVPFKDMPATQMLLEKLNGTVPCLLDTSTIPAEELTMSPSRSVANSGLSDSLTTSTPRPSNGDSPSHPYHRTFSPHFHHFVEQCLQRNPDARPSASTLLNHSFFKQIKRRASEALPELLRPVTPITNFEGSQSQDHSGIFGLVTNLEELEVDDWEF
T1 sequence (Q9Y376 1-341 partner): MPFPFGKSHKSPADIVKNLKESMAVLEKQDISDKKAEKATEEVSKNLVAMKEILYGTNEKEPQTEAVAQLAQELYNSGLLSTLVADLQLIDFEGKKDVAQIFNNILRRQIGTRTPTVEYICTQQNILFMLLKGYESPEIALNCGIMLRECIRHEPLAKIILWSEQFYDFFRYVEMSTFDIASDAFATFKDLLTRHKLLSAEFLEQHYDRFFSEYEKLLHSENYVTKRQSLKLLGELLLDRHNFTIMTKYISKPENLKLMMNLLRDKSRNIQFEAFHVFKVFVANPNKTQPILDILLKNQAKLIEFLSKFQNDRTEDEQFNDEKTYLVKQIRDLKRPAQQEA

LKB1 [3] = molecular target: T1, LKB1; experiment: LKB1 kinase assay with recombinant LKB1 (LKB1 in vitro activation); format: biochemical
Excerpt: Screening in human cancer cell lines has identified cell lines responsive to LKB1 activation and predictive biomarkers for compound development have been determined. Installation of a novel polar functionality specifically designed to target STRAD's unique phosphate-binding residues led to the identification of compound SU-329 which is currently progressing through efficacy models evaluating tumor growth inhibition. The terms SU-329 and SU20668-0329-01 refer to the same compound.
Small Molecule Activation of the LKB1 Tumor Suppressor. Cancer treatment has been considerably advanced by the relatively recent development of small molecules capable of inhibiting oncogenic kinase signaling, but exogenous enhancement of tumor suppressive signaling remains elusive. Here, we sought to design small molecules capable of activating the tumor suppressor kinase LKB1. Designing compounds capable of increasing kinase activity has been more structurally challenging than those aimed at inhibiting them: apart from the ATP-binding pocket, there is rarely a site that would be conducive to binding a small molecule. Unlike most protein kinases, LKB1 signals as part of an obligate trimer consisting of itself, a scaffolding protein (MO25), and a pseudokinase (STRAD). As part of its mechanism of activation, LKB1 must bind to an ATP-bound STRAD to take on its active kinase conformation. […]

ACHN cell line = experiment: Drug screen of the SelleckChem kinase inhibitor library with and without SU-329, Cell-Titer Glo after 5 days; format: cell-based; conditions: kinase inhibitors 200 nM with and without 5 μM SU-329
Protocol: FIG. 8. Drug screen identifies signaling pathways that affect the impact of LKB1 activation. Drug screen of the SelleckChem kinase inhibitor library was performed in the ACHN cell line. Sensitivity to kinase inhibitors used at 200 nM with and without 5 μM of SU-329 was measured after 5 days with Cell-Titer Glo. […] The terms SU-329 and SU20668-0329-01 refer to the same compound.

SMILES | IC50 [1] [nM] | LKB1 % Act. Increase (LKB1 [2]) | LKB1 in vitro activation (LKB1 [3]) | response of LKB1 stimulation under inhibition of GSK-3 (ACHN cell line) | response of LKB1 stimulation under inhibition of mTOR and components of the PI3K (ACHN cell line)
CCO[P@@](=O)(CC)CS(=O)(=O)c1ccc(NC(=O)c2nc(-c3ccc(C)cc3)cnc2N)cc1 [SU20668-0522, (S)-ethyl (4-(3-amino-6-p-tolylpyrazine-2-carboxamido)phenylsulfonyl)methyl(ethyl)phosphinate] | < 3000 | B (B=399-2000%) |  |  | 
CCOP(=O)(C[S@SP3](=O)(=O)c1ccc(NC(=O)c2nc(-c3ccc(C)cc3)cnc2N)cc1)OCC [SU20668-0313, diethyl (((4-(3-amino-6-(p-tolyl)pyrazine-2-carboxamido)phenyl)sulfonyl)methyl)phosphonate] | < 3000 | C (C=199-1000%) |  |  | 
CO[P@@](C)(=O)CS(=O)(=O)c1ccc(NC(=O)c2nc(-c3ccc(C)cc3)cnc2N)cc1 [SU20668-0519, (R)-methyl (4-(3-amino-6-p-tolylpyrazine-2-carboxamido)phenylsulfonyl)methyl(methyl)phosphinate] | < 3000 | A (A=>4000%) |  |  | 
Cc1ccc(-c2cnc(N)c(C(=O)Nc3ccc(S(=O)(=O)CC4COC4)cc3)n2)cc1 [SU20668-0494, 3-amino-N-(4-(oxetan-3-ylmethylsulfonyl)phenyl)-6-p-tolylpyrazine-2-carboxamide] | < 3000 | A (A=>4000%) |  |  | 
CCOP(C)(=O)CS(=O)(=O)c1ccc(NC(=O)c2nc(-c3ccc(C)cc3)cnc2N)cc1 (centres unmarked) [SU20668-0472, ethyl (4-(3-amino-6-p-tolylpyrazine-2-carboxamido)phenylsulfonyl)methyl(methyl)phosphinate] | < 3000 | A (A=>4000%) |  |  | 
CCO[P@](=O)(CC)CS(=O)(=O)c1ccc(NC(=O)c2nc(-c3ccc(C)cc3)cnc2N)cc1 [SU20668-0521, (R)-ethyl (4-(3-amino-6-p-tolylpyrazine-2-carboxamido)phenylsulfonyl)methyl(ethyl)phosphinate] | < 3000 | A (A=>4000%) |  |  | 
Cc1ccc(-c2cnc(N)c(C(=O)Nc3ccc(S(N)(=O)=O)cc3)n2)cc1 [SU20668-0197, 3-amino-N-(4-sulfamoylphenyl)-6-p-tolylpyrazine-2-carboxamide] | < 3000 | B (B=399-2000%) |  |  | 
Cc1ccc(-c2cnc(N)c(C(=O)Nc3ccc(S(N)(=O)=O)c(F)c3)n2)cc1 [SU20668-0305, 3-amino-N-(3-fluoro-4-sulfamoylphenyl)-6-p-tolylpyrazine-2-carboxamide] | < 3000 | C (C=199-1000%) |  |  | 
CC(=O)NS(=O)(=O)c1ccc(NC(=O)c2nc(-c3ccc(C)s3)cnc2N)cc1 [SU20668-0349, N-(4-(N-acetylsulfamoyl)phenyl)-3-amino-6-(5-methylthiophen-2-yl)pyrazine-2-carboxamide] | 3000 to 50000 | C (C=199-1000%) |  |  | 
COP(=O)(CS(=O)(=O)c1ccc(NC(=O)c2nc(-c3ccc(C)cc3)cnc2N)cc1)OC [SU20668-0329, dimethyl (4-(3-amino-6-p-tolylpyrazine-2-carboxamido)phenylsulfonyl)methylphosphonate] | < 3000 | A (A=>4000%) |  |  | 
CC(=O)N[S@SP3](=O)(=O)c1ccc(NC(=O)c2nc(-c3ccc(C)cc3)cnc2N)cc1 [SU20668-0314, N-(4-(N-acetylsulfamoyl)phenyl)-3-amino-6-p-tolylpyrazine-2-carboxamide] | 3000 to 50000 | C (C=199-1000%) |  |  | 
Cc1ccc(-c2cnc(N)c(C(=O)Nc3ccc(S(=O)(=O)NC4COC4)cc3)n2)cc1 [SU20668-0468, 3-amino-N-(4-(N-oxetan-3-ylsulfamoyl)phenyl)-6-p-tolylpyrazine-2-carboxamide] | < 3000 | C (C=199-1000%) |  |  | 
CCOP(=O)(CC)CS(=O)(=O)c1ccc(NC(=O)c2nc(-c3ccc(C)cc3)cnc2N)cc1 (centres unmarked) [SU20668-0515, ethyl (4-(3-amino-6-p-tolylpyrazine-2-carboxamido)phenylsulfonyl)methyl(ethyl)phosphinate] | < 3000 | B (B=399-2000%) |  |  | 
COP(=O)(CS(=O)(=O)c1ccc(NC(=O)c2nc(-c3ccc(C)cc3)cnc2N)cc1)OC [SU-329] |  |  | Single digit micro-molar | reduced the response of LKB1 stimulation | attenuated the response of LKB1 stimulation
CCOP(=O)(OCC)C(F)S(=O)(=O)c1ccc(NC(=O)c2nc(-c3ccc(C)cc3)cnc2N)cc1 (centres unmarked) [SU20668-0485] | < 3000 |  |  |  | 
CO[P@](C)(=O)CS(=O)(=O)c1ccc(NC(=O)c2nc(-c3ccc(C)cc3)cnc2N)cc1 [SU20668-0520, (S)-methyl (4-(3-amino-6-p-tolylpyrazine-2-carboxamido)phenylsulfonyl)methyl(methyl)phosphinate] | < 3000 | A (A=>4000%) |  |  | 
CS(=O)(=O)c1ccc(-c2cnc(N)c(C(=O)Nc3ccc(S(N)(=O)=O)cc3)n2)cc1 [SU20668-0309, 3-amino-6-(4-(methylsulfonyl)phenyl)-N-(4-sulfamoylphenyl)pyrazine-2-carboxamide] |  | C (C=199-1000%) |  |  | 
Cc1ccc(-c2cnc(N)c(C(=O)Nc3ccc(S(N)(=O)=O)nc3)n2)cc1 [SU20668-0304, 3-amino-N-(6-sulfamoylpyridin-3-yl)-6-p-tolylpyrazine-2-carboxamide] |  | D (D=<1000%) |  |  | 
CCO[P@@](C)(=O)CS(=O)(=O)c1ccc(NC(=O)c2nc(-c3ccc(C)cc3)cnc2N)cc1 [SU20668-0517, (R)-ethyl (4-(3-amino-6-p-tolylpyrazine-2-carboxamido)phenylsulfonyl)methyl(methyl)phosphinate] |  | B (B=399-2000%) |  |  | 
CCOP(=O)(O)CS(=O)(=O)c1ccc(NC(=O)c2nc(-c3ccc(C)cc3)cnc2N)cc1 [SU20668-0338, ethyl hydrogen (((4-(3-amino-6-(p-tolyl)pyrazine-2-carboxamido)phenyl)sulfonyl)methyl)phosphonate] |  | D (D=<1000%) |  |  | 
CC(=O)NS(=O)(=O)c1ccc(NC(=O)c2nc(-c3cc(F)ccc3C#N)cnc2N)cc1 [SU20668-0371, N-(4-(N-acetylsulfamoyl)phenyl)-3-amino-6-(2-cyano-5-fluorophenyl)pyrazine-2-carboxamide] | 3000 to 50000 | A (A=>4000%) |  |  | 
